Results as given in ChEMBL document CHEMBL1201862, “PubChem BioAssay data set” (2004).
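Interpolation was linear, between the two tested concentrations surrounding the appropriate level; five concentrations were tested over 48 hours in 96-well plates. Abbreviation: GI50, concentration required for 50% inhibition of growth.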 Activity calls are given as the source filed them. Rule as the data show it: active = GI50 up to about 1.1 µM and inactive = higher.

system: T47D; assay: inhibition of tumour cell growth, NCI panel, 48 h

SMILES	GI50
Oc1cc(-c2ccccc2Cl)nc2cc3c(cc12)OCO3	26.6 µM (inactive)
COc1cc(C2CC(C)(O)Oc3cc4c(cc32)OCO4)cc(OC)c1OC (stereo not drawn)	0.296 µM (active)
CCn1c(=O)c2c3ccc(OC)cc3[nH]c2c2ccc(OC)cc21	24.6 µM (inactive)
O=C(CC1C=CCS1(=O)=O)NCc1ccccc1 (stereo not drawn)	> 100 µM (inactive)
COc1ccc(/C=N\NC(=O)Nc2cccc3ccccc23)cc1	14.1 µM (inactive)
CC1(C)CC[C@]2(C)[C@@H](O)C[C@]3(C)C(=CC[C@@H]4[C@@]5(C)CC[C@H](O)C(C)(C)[C@@H]5CC[C@]43C)[C@@H]2C1	9.79 µM (inactive)
COC(=O)C1(NC(=O)C(N)CC(=O)O)C(C)C1C (stereo not drawn)	> 100 µM (inactive)
CCN(CC)CCN1C=CC(C)C(C(=O)O)C1C(N)=O (stereo not drawn)	> 100 µM (inactive)
COc1ccc(N2C(=O)C3c4[nH]c5ccc(C)cc5c4C4CCC(C(C)(C)C)CC4C3C2=O)cc1 (stereo not drawn)	35.2 µM (inactive)
C[N+](C)([O-])C12CC3CC(CC(C3)C1)C2	26.9 µM (inactive)
CCc1nc(N)c2nc(-c3cccs3)oc2n1	79.8 µM (inactive)
Cc1cc2[nH]c3c(C#N)c(-c4ccccc4)c(/N=N/c4cccc(C(F)(F)F)c4)c(=O)n3c2cc1C	20.3 µM (inactive)
CC(C)(C)C(=O)Oc1ccc(/C=C/C(=O)c2ccc(OC(=O)C(C)(C)C)cc2)cc1	91.2 µM (inactive)
Cc1ccc(Nc2nc(=O)c3c4ccccc4n(C(=O)OC(C)(C)C)c3s2)cc1	39.2 µM (inactive)
CC1=C2C(=O)OCC23C=COC3(C)O1 (stereo not drawn)	29.3 µM (inactive)
C[C@H](CCC1=NCCN1)[C@H]1CC[C@H]2[C@@H]3CC[C@@H]4C[C@H](O)CC[C@]4(C)[C@H]3C[C@H](O)[C@]12C	13.6 µM (inactive)
CC(C)=CCC/C(C)=C/CC/C(C)=C/CC/C(C=O)=C/CC/C(C)=C\CC/C(C)=C/CC/C(C)=C/CC/C(C)=C/CC1=CC(=O)C=CC1=O	10.5 µM (inactive)
COc1ccc(C2=Nn3c(nnc3-c3ccccc3)S/C2=C\c2ccc(-c3ccc([N+](=O)[O-])cc3)o2)cc1	18.6 µM (inactive)
O=[N+]([O-])c1ccc(S[C@@H]2[C@H]3c4c(-c5ccccc5)[nH]c(-c5ccccc5)c4[C@@H]2C[C@H]3Cl)cc1	1.93 µM (inactive)

SMILES	GI50
Cc1ccc(S(=O)(=O)/N=C(\NN)Nc2ccc(Cl)cc2)cc1	88.3 µM (inactive)
CC(=O)Nc1[nH]c(C#N)nc1C#N	> 100 µM (inactive)
CC(=O)c1cccc(Nc2nc3ccccc3c3occc23)c1	21 µM (inactive)
N#CC1=C(N)N(/N=C/c2ccco2)C(c2ccco2)C1(C#N)C#N (stereo not drawn)	12.4 µM (inactive)
O=C(c1ccco1)N(C(=S)OC12CC3CC(CC(C3)C1)C2)c1ccccc1	47.2 µM (inactive)
CC1(C)CC(=O)C(CC2C(=O)c3ccccc3C2=O)C(=O)C1C(=O)C(=O)Nc1cccc2ccc(O)cc12 (stereo not drawn)	27.4 µM (inactive)
Cc1ccc2c3c(cnc2n1)C(=O)OCCN3C	> 100 µM (inactive)
CCC1(CC)C(=O)NN(C(=O)c2ccc(Cl)cc2)C1=O	> 100 µM (inactive)
CCOP(=O)(OCC)C(C)(CC)NC (stereo not drawn)	> 100 µM (inactive)
O=C(O)C/C=C/CC(=O)O	> 100 µM (inactive)
CCOC(=O)c1nc2ccc(C(F)(F)F)cc2nc1Nc1cc(OC)c(OC)c(OC)c1	> 100 µM (inactive)
Cc1nc2ccc(F)cc2c2c1CCS2	33.7 µM (inactive)
OC(c1ccc(-c2ccccc2)cc1)C(F)(F)c1nc2ccccc2o1 (stereo not drawn)	31.8 µM (inactive)
COc1c(-c2nc3ccc(N4CCN(C)CC4)cc3[nH]2)cc(OC)c2[nH]c(COC(C)=O)nc12	24.8 µM (inactive)
CCCCCc1cc2cc3c(c(O)c2c(=O)[nH]1)C1(CCC3)C(=O)c2c(O)c3c(c(O)c2C1=O)C(=O)C(OC)=CC3=O (stereo not drawn)	0.0959 µM (active)
O=C(O)c1ccccc1/N=N/c1c(O)c(S(=O)(=O)O)cc2cc(S(=O)(=O)O)ccc12	> 100 µM (inactive)
Cc1ccc(S(=O)(=O)N/N=C2/CCC3(O)CC2(C)CCC2[C@H]3CC2(C)C)cc1 (stereo partly drawn)	> 100 µM (inactive)
CC(C)C[C@H](NC(=O)[C@H](Cc1cccc2ccccc12)NS(=O)(=O)c1cccc2cccnc12)B(O)O	< 0.01 µM (active)
O=C1Nc2ccccc2/C1=C\c1c(Cl)n(-c2ccccc2)c2ccccc12	3.41 µM (inactive)
